Test results taken from article PMC9865587, “Inhibitory Effects of 2-Aminoethoxydiphenyl Borate (2-APB) on Three KV1 Channel Currents” (Molecules, 2023).
pIC50: −log10 of the molar value.

How the values were obtained:
Assay in all cases: cell-based
KV1.4 [1] = biological target: T1, KV1.4 (Homo sapiens, UniProt P22459, N-TERMINALTRUNCATION(1–61DELETED))
T1 construct: gene KCNA4

KV1.4 [2] = biological target: T2, KV1.4 (Homo sapiens, UniProt P22459, L554A); conditions: CHO
T2 construct: gene KCNA4
T2 sequence (P22459 whole entry L554A): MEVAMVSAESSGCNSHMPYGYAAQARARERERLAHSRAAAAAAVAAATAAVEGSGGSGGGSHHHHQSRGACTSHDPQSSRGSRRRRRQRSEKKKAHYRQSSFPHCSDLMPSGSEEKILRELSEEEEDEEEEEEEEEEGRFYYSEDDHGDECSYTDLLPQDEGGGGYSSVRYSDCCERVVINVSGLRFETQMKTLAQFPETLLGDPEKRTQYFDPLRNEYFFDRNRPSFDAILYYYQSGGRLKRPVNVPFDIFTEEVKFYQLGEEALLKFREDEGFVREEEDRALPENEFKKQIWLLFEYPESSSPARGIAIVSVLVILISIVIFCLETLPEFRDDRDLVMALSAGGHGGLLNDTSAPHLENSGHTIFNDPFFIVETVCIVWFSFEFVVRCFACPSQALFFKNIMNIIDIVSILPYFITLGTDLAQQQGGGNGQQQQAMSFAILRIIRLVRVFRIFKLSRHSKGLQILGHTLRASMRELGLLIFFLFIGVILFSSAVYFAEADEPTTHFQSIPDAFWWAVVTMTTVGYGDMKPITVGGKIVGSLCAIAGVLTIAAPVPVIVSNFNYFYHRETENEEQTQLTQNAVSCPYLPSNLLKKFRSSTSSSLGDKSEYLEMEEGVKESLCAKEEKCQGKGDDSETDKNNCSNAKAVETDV

KV1.4 [3] = biological target: T3, KV1.4 (Homo sapiens, UniProt P22459, V558A); conditions: CHO
T3 construct: gene KCNA4
T3 sequence (P22459 whole entry V558A): as the sequence (P22459 whole entry L554A) above, with A554L, V558A counted along it

KV1.4 [4] = biological target: T4, KV1.4 (Homo sapiens, UniProt P22459, V549A); conditions: CHO
T4 construct: gene KCNA4
T4 sequence (P22459 whole entry V549A): as the sequence (P22459 whole entry L554A) above, with V549A, A554L counted along it

KV1.4 [5] = biological target: T5, KV1.4 (Homo sapiens, UniProt P22459, V556A); conditions: CHO
T5 construct: gene KCNA4
T5 sequence (P22459 whole entry V556A): as the sequence (P22459 whole entry L554A) above, with A554L, V556A counted along it

KV1.2 = biological target: T6, KV1.2 (Homo sapiens, UniProt P16389)
T6 construct: gene KCNA2
T6 sequence (P16389 whole entry): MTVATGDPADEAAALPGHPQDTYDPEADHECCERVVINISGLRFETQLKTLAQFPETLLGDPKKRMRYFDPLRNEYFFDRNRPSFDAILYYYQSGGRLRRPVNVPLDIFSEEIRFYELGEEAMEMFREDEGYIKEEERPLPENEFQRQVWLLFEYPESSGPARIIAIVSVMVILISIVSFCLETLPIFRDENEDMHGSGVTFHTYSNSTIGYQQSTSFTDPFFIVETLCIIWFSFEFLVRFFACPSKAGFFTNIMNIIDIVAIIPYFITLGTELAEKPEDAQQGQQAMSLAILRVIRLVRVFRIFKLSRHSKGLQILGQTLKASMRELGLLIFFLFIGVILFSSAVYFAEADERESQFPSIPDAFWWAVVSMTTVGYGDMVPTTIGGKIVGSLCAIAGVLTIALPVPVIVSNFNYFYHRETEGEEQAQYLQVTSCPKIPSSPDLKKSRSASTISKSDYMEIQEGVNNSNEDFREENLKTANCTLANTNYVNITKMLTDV

KV1.4 [6] = biological target: T7, KV1.4 (Homo sapiens, UniProt P22459, A553V); conditions: CHO
T7 construct: gene KCNA4
T7 sequence (P22459 whole entry A553V): as the sequence (P22459 whole entry L554A) above, with A553V, A554L counted along it

KV1.3 = biological target: T8, KV1.3 (Homo sapiens, UniProt P22001)
T8 construct: gene KCNA3
T8 sequence (P22001 whole entry): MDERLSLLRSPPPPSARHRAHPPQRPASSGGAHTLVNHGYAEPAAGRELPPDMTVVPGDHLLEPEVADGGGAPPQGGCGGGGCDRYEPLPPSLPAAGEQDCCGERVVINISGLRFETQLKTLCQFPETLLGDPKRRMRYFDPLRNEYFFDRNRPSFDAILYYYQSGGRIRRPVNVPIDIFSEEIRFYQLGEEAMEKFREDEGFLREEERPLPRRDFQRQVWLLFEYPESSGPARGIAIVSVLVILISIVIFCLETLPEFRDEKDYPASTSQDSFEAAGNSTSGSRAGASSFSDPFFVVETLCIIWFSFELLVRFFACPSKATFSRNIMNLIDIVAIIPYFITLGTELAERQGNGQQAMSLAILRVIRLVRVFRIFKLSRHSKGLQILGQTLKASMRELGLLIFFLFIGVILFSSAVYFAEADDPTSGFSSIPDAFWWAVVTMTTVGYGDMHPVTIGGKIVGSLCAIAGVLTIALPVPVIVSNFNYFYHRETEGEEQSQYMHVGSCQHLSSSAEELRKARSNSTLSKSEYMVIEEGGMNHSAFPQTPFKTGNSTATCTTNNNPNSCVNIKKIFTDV

KV1.4 [7] = biological target: T9, KV1.4 (Homo sapiens, UniProt P22459, T551A); conditions: CHO
T9 construct: gene KCNA4
T9 sequence (P22459 whole entry T551A): as the sequence (P22459 whole entry L554A) above, with T551A, A554L counted along it

KV1.4 [8] = biological target: T10, KV1.4 (Homo sapiens, UniProt P22459)
T10 construct: gene KCNA4
T10 sequence (P22459 whole entry): as the sequence (P22459 whole entry L554A) above, with A554L counted along it

T1 sequence (P22459 62-653, stated change not applied): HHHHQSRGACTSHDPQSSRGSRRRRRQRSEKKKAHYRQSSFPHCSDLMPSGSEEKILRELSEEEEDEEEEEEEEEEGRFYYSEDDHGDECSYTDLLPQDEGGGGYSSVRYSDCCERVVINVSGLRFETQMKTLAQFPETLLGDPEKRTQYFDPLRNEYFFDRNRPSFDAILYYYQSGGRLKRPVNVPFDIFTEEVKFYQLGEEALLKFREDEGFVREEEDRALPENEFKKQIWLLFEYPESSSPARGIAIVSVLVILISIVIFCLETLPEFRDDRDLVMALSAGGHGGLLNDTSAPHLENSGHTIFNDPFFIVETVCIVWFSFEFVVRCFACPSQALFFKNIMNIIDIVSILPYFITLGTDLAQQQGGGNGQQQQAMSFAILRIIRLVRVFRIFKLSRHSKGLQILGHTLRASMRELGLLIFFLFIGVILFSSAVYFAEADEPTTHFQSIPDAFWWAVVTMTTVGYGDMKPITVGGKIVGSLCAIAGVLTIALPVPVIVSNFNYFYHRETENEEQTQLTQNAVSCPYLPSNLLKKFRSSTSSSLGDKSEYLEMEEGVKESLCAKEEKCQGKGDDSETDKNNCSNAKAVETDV

`NCCOB(c1ccccc1)c1ccccc1` [2-APB] gave a pIC50 (KV1.4 [1]) of 3.51, an inhibition at 100 µM (KV1.4 [2]) of 32.9% and an inhibition at 100 µM (KV1.4 [3]) of 57.3%. It also gave an inhibition at 100 µM (KV1.4 [4]) of 44.1%, an inhibition at 100 µM (KV1.4 [5]) of 60.8% and a pIC50 (KV1.2) of 3.51. The inhibition at 100 µM (KV1.4 [6]) was 18.4%, the pIC50 (KV1.3) was 3.34 and the inhibition at 100 µM (KV1.4 [7]) was 37.8%. It also gave a pIC50 (KV1.4 [8]) of 4.17.
